Measurements published in PubChem BioAssay (NCI).
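Grown in 96-well plates, cells were treated for 48 hours with each compound at five concentrations. Insufficient inhibition: endpoint recorded as highest concentration tested. At the TGI there is no net growth.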

Legend:
Assay in all cases: growth of human tumour cells (NCI), 48 h
SK-OV-3 ovarian = tested on: SK-OV-3 ovarian
OVCAR-4 ovarian = tested on: OVCAR-4 ovarian
COLO 205 colon = tested on: COLO 205 colon
SF-268 CNS = tested on: SF-268 CNS
SK-MEL-5 melanoma = tested on: SK-MEL-5 melanoma
MDA-N = tested on: MDA-N
HCT-116 colon = tested on: HCT-116 colon
RPMI-8226 leukemia = tested on: RPMI-8226 leukemia
SN12C renal = tested on: SN12C renal
BT-549 breast = tested on: BT-549 breast
MCF7 breast = tested on: MCF7 breast
SK-MEL-2 melanoma = tested on: SK-MEL-2 melanoma
NCI-H226 lung = tested on: NCI-H226 lung
RXF 393 renal = tested on: RXF 393 renal
U251 CNS = tested on: U251 CNS
T-47D breast = tested on: T-47D breast
MDA-MB-231 breast = tested on: MDA-MB-231 breast
SF-295 CNS = tested on: SF-295 CNS
OVCAR-5 ovarian = tested on: OVCAR-5 ovarian
EKVX NSCLC = tested on: EKVX NSCLC
HS 578T breast = tested on: HS 578T breast
HCT-15 colon = tested on: HCT-15 colon
HOP-92 NSCLC = tested on: HOP-92 NSCLC
NCI-H23 lung = tested on: NCI-H23 lung
ACHN renal = tested on: ACHN renal
NCI-H522 lung = tested on: NCI-H522 lung
K-562 leukemia = tested on: K-562 leukemia
UACC-257 melanoma = tested on: UACC-257 melanoma
M14 melanoma = tested on: M14 melanoma
IGROV1 ovarian = tested on: IGROV1 ovarian
HOP-62 NSCLC = tested on: HOP-62 NSCLC
MALME-3M melanoma = tested on: MALME-3M melanoma
MOLT-4 leukemia = tested on: MOLT-4 leukemia
KM12 colon = tested on: KM12 colon
786-0 renal = tested on: 786-0 renal
SR leukemia = tested on: SR leukemia
A549 NSCLC = tested on: A549 NSCLC
CCRF-CEM leukemia = tested on: CCRF-CEM leukemia
SK-MEL-28 melanoma = tested on: SK-MEL-28 melanoma
PC-3 prostate = tested on: PC-3 prostate
SNB-19 CNS = tested on: SNB-19 CNS
HT29 colon = tested on: HT29 colon
NCI-H460 lung = tested on: NCI-H460 lung
NCI/ADR-RES ovarian = tested on: NCI/ADR-RES ovarian
MDA-MB-435 = tested on: MDA-MB-435
UACC-62 melanoma = tested on: UACC-62 melanoma
HCC-2998 colon = tested on: HCC-2998 colon
OVCAR-3 ovarian = tested on: OVCAR-3 ovarian
DU-145 prostate = tested on: DU-145 prostate
OVCAR-8 ovarian = tested on: OVCAR-8 ovarian
HL-60(TB) leukemia = tested on: HL-60(TB) leukemia
TK-10 renal = tested on: TK-10 renal
SNB-75 CNS = tested on: SNB-75 CNS
SW-620 colon = tested on: SW-620 colon
LOX IMVI melanoma = tested on: LOX IMVI melanoma
SF-539 CNS = tested on: SF-539 CNS
CAKI-1 renal = tested on: CAKI-1 renal

Measured: TGI

COc1cc(C2SC(N)=Nc3c2c(C)nn3C(=O)c2ccc(Cl)cc2)cc(OC)c1OC (configuration not stated)
> 10 µM: all assays above
